Data published in the supplement of paper PMC10307832.

Experiments:
Assay in all cases: relative viability (nuclei count vs DMSO), 5 days (fraction); higher = more cells survive
AZD6482 + Trametinib = compound: Cc1cc([C@@H](C)Nc2ccccc2C(=O)O)c2nc(N3CCOCC3)cc(=O)n2c1 [AZD6482] + CC(=O)Nc1cccc(-n2c(=O)n(C3CC3)c(=O)c3c(Nc4ccc(I)cc4F)n(C)c(=O)c(C)c32)c1 [Trametinib] (partner 0.02 µM)
Outline: (§1)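 One day after seeding in 1536-well plates, lung cancer cell lines were dosed by pin tool. Dosing was either single-drug or a fixed anchor-drug dose plus five library-drug doses (not always all listed) in √10 steps. After 5 days, nuclei were stained in one fix-and-stain step and counted on 4× images, and relative viability is the nuclei count of treated wells over that of vehicle wells, given as the median of duplicate plates.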

AZD6482 + Navitoclax = compound: Cc1cc([C@@H](C)Nc2ccccc2C(=O)O)c2nc(N3CCOCC3)cc(=O)n2c1 [AZD6482] + CC1(C)CCC(c2ccc(Cl)cc2)=C(CN2CCN(c3ccc(C(=O)NS(=O)(=O)c4ccc(N[C@H](CCN5CCOCC5)CSc5ccccc5)c(S(=O)(=O)C(F)(F)F)c4)cc3)CC2)C1 [Navitoclax] (partner 0.5 µM)
Outline: as §1

[1] = compound: COc1cc2nc(N3CCCN(C)CC3)nc(NC3CCN(Cc4ccccc4)CC3)c2cc1OC + O=C(CCCCCCC(=O)Nc1ccccc1)NO [Vorinostat] (partner 1 µM)
Outline: as §1

[2] = compound: COc1cc2nc(N3CCCN(C)CC3)nc(NC3CCN(Cc4ccccc4)CC3)c2cc1OC + COc1cc2c(Oc3ccc(NC(=O)C4(C(=O)Nc5ccc(F)cc5)CC4)cc3F)ccnc2cc1OCCCN1CCOCC1 [Foretinib] (partner 0.25 µM)
Outline: as §1

Cell Line	relative viability (AZD6482 + Trametinib; first compound 0.08 µM)	relative viability (AZD6482 + Trametinib; first compound 0.253 µM)	relative viability (AZD6482 + Trametinib; first compound 0.8 µM)	relative viability (AZD6482 + Trametinib; first compound 2.53 µM)	relative viability (AZD6482 + Trametinib; first compound 8 µM)	relative viability (AZD6482 + Navitoclax; first compound 0.08 µM)	relative viability (AZD6482 + Navitoclax; first compound 0.253 µM)	relative viability (AZD6482 + Navitoclax; first compound 0.8 µM)	relative viability (AZD6482 + Navitoclax; first compound 2.53 µM)	relative viability (AZD6482 + Navitoclax; first compound 8 µM)	relative viability ([1]; first compound 0.2 µM)	relative viability ([1]; first compound 0.6325 µM)	relative viability ([1]; first compound 2 µM)	relative viability ([1]; first compound 6.325 µM)	relative viability ([2]; first compound 0.2 µM)	relative viability ([2]; first compound 0.6325 µM)	relative viability ([2]; first compound 2 µM)	relative viability ([2]; first compound 6.325 µM)
HCC-44	0.926	1.07	1.08	1.08	0.858	0.758	0.964	0.965	0.874	0.459	1.11	1.12	1.17	1.12				
HCC-78	0.547	0.496	0.57	0.345	0.417	0.663	0.438	0.433	0.203	0.306	0.495	0.442	0.462	0.429	0.57	0.578	0.58	0.533
HCC-366	0.266	0.279	0.286	0.182	0.193	0.937	1.01	1.11	0.901	0.908	0.332	0.33	0.254	0.284	0.916	0.966	0.906	0.945
HCC-827	0.47	0.462	0.473	0.346	0.251	0.938	1.01	1.07	0.899	0.898	0.899	0.786	0.784	0.826	1.06	1.12	1.05	1.02
HOP-62	0.247	0.342	0.242	0.262	0.232	1.19	1.17	1.28	0.791	1.12	0.658	0.366	0.638	0.435	1.06	1.09	1.1	1.15
IA-LM						0.859	0.979	0.977	0.618	0.744	0.983	0.876	0.908	0.975	1.13	0.807	1.34	1.16
LC-2-ad	0.864	0.886	0.942	0.798	0.614	0.407	0.312	0.394	0.234	0.259	0.679	0.716	0.763	0.693	0.813	0.938	0.956	0.974
LCLC-97TM1	0.2	0.202	0.171		0.154	0.59	0.257	0.38	0.211	0.211	0.801	0.649	1	0.69	0.951	0.994	0.913	0.844
LCLC-103H	0.661	0.607	0.649	0.547	0.496						0.776	0.754	0.844	0.656	0.826	0.857	0.825	0.772
NCI-H358	0.133	0.131	0.12	0.117	0.113						0.746	0.663	0.754	0.462	0.701	0.824	0.81	0.566
NCI-H522	0.872	0.711	0.841	0.549	0.566						0.803	0.884	0.879	0.676				
NCI-H650	0.958	0.906	0.805	0.663	0.711						0.573	0.391	0.475	0.321	1.06	0.948	1.12	0.965
NCI-H661	0.615	0.555	0.61	0.428	0.387						0.763	0.774	0.833	0.807	1.04	0.972	1.06	0.995
NCI-H1299						0.982	1.04	1.1	0.917	1.04					1.07	1.07	1.13	1.06
NCI-H1563															1.03	0.944	0.973	0.824
NCI-H1623															0.903	0.94	0.848	0.768
NCI-H1648	0.483	0.434	0.491		0.365							0.562		0.616				
NCI-H1703						0.902	0.865	0.822	0.338	0.422					0.313	0.317	0.412	0.448
NCI-H1792	0.322	0.377	0.41	0.251	0.283	0.508	0.511	0.566	0.341	0.463								
NCI-H2342	0.682	0.685	0.799	0.561	0.622						0.638	0.729	0.792	0.757	1.1	1	1.17	1.1
SW 900	0.851	0.591	0.703	0.43	0.568						0.365	0.713	0.565	0.375	0.679	1.15	0.779	0.857
